Reference: patent publication US7795255B2, “Rigidified compounds for modulating heparanase activity” (InSight Biopharmaceuticals Ltd., priority 2005, dated 2010)

Tests used:
[1] = target: β-FGF (Homo sapiens, UniProt P09038); assay: ELISA for determination of binding of β-FGF to heparin; details: for IC50: inhibition of β-FGF binding to heparin, NI = no inhibition; for inhibition of β-FGF binding to heparin: inhibition towards both growth factors
Procedure: ELISA for determination of binding of β-FGF to heparin: 96-well microplates were coated for 2 hours at 23-25° C. with 5 μg/ml heparin-albumin (Rimon Biotech) and blocked with 1% BSA in PBS, with 0.05% Tween, and 0.01% thimerosal for 2 hours. β-FGF was added to the plates at a concentration of 10 ng/ml and plates were incubated for 45 minutes at 23-25° C. The amount of β-FGF bound to heparin was detected using anti-FGF monoclonal antibody (Sigma Cat. No. F6162) at a concentration of 2.5 ng/ml and secondary antibodies Sheep anti-mouse IgG linked to horseradish peroxidase (1:3000) TMB (Pierce Cat. No. 34021) was used as a substrate for peroxidase. The plates were read at 450 nm with a reference wavelength of 630 nm using a VERSAmax plate reader.

[2] = target: T1, recombinant human pro-heparanase (H60) (Homo sapiens, UniProt Q9Y251); assay: Pro-heparanase (H60) activation in a cell-based assay; details: inhibition of pro-heparanase activation in CHO cells; NI = no inhibition
T1 construct: Heparanase maturation involves the removal of the signal peptide, transforming the 65 kDa pre-pro-heparanase into a 60 kDa pro-heparanase; made in house
T1 sequence (Q9Y251 36-543): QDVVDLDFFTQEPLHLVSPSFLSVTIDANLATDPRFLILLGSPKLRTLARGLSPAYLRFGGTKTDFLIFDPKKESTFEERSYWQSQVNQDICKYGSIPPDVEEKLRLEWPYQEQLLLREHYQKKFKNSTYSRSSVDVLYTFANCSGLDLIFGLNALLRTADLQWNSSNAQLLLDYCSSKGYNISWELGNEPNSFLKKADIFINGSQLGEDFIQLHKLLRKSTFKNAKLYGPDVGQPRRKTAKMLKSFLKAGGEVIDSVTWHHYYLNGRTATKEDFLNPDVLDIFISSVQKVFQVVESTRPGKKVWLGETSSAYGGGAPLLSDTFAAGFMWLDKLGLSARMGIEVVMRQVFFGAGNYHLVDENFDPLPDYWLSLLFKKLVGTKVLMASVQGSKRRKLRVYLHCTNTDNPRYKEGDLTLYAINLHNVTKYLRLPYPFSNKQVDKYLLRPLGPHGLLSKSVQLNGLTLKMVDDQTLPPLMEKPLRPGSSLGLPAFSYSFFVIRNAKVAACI
Procedure: Pro-heparanase (H60) activation in a cell-based assay: Chinese hamster ovary (CHO) cells were grown in complete F12 medium supplemented with 10% fetal calf serum (FCS). […] The plates were incubated for 24 hours in a 37° C. humidified incubator with 5% CO2. […] The plates were further incubated for additional 4 hours. The pro-heparanase was allowed to internalize by the cells and further processed to generate the active 53 kDa heparanase. At the end of the incubation, the cells were lysed by three consecutive cycles of freezing and thawing in a −80° C. freezer and a 37° C. shaker.
The rigidified compounds described herein were tested for inhibition of pro-heparanase activation in the cell-based assay described above.

[3] = target: T2, vascular endothelial growth factor (VEGF) (Homo sapiens, UniProt P15692); assay: ELISA for determination of binding of VEGF to heparin; details: for IC50: inhibition of VEGF binding to heparin, NI = no inhibition; for inhibition of VEGF binding to heparin: inhibition towards both growth factors
T2 sequence (P15692 27-191 isoform P15692-4): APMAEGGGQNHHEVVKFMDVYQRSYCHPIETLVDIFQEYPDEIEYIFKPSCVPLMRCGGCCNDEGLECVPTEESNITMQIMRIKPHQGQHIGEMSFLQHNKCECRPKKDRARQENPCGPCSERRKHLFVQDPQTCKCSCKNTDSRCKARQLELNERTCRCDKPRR
Procedure: Enzyme-linked immunosorbent assay (ELISA) for determination of binding of vascular endothelial growth factor (VEGF) to heparin: 96-well microplates were coated for 2 hours. at 23-25° C. with 5 μg/ml heparin-albumin (Rimon Biotech) and blocked with 1% bovine serum albumin (BSA) in phosphate buffer (PBS) with 0.05% Tween and 0.01% thimerosal for 2 hours. VEGF was added to the plates at a concentration of 10 ng/ml and the plates were thereafter incubated for 45 minutes at 23-25° C. The amount of VEGF bound to heparin was detected using anti-VEGF monoclonal antibody (Sigma Cat. No. V4758) at a concentration of 0.26 μg/ml and secondary antibodies Sheep anti-mouse IgG linked to horseradish peroxidase (1:2000) using 3,3′,5,5′-tetramethylbenzidine (TMB, Pierce Cat. No. 34021) as a substrate for peroxidase. The plates were read at 450 nm with a reference wavelength of 630 nm using a VERSAmax plate reader. […] Percent inhibition was calculated as compared with a control pre-incubated with a solution of 1% DMSO and the results are presented in Table 3 below.

[4] = test system: MDA-MB231 breast cancer cells; assay: In-vitro assay for inhibition of cell invasion (MDA-MB231); format: cell-based; details: Homo sapiens; MB231 cells (first value of cell); read-out: IC50 Invasion MB231/PC3/A375
Procedure: (§1) In-vitro assay for inhibition of cell invasion: The ability of the rigidified compounds described herein to inhibit cell invasion was determined quantitatively using BD Biocoat FluoroBlok Invasion System (BD, cat No. FAL354165). MDA-MB231 breast cancer cells, human prostatic cancer PC3 cells and A375 melanoma cells were used for this assay. Cells (5×10^4 cells/ml) were pre-incubated with the compounds for 48 hours prior to the assay, at 37° C. and a 5% CO2 atmosphere.
(§2) Serial dilutions of each compound starting from a concentration which was previously found to be non-toxic to the cells (using Oxygen Biosensor System, BD), were prepared in DMSO and added to the cells to a final concentration of 1% DMSO. At the end of the pre-incubation, cells at each compound concentration were counted and 2×10^4 cells/well in basic medium were applied onto the top chamber of the insert of the Invasion system. 750 μl complete medium with 5% fetal calf serum was added to the bottom chambers. The tested compound was applied to the top and bottom chambers. Invasion plates were incubated for 22 hours at 37° C. and a 5% CO2 atmosphere.
At the end of the incubation, medium was aspirated from the upper chambers and the inserts were transferred to a plate containing Calcein AM (Molecular Probes), 4 μg/ml and incubated for 90 minutes at 37° C. and a 5% CO2 atmosphere.
(§3) Fluorescence of invaded cells was read in a fluorescence plate reader BMG POLARstar Galaxy, BMG at excitation/emission wavelength of 485/530 nm.

[5] = target: T3, heparanase (H53) (Homo sapiens, UniProt Q9Y251); assay: Heparanase (H53) assay (DMB assay); format: biochemical; details: for dual activity: inhibition of pro-heparanase activation (H60) and of heparanase activity (H53): compounds with an acidic group; for IC50: inhibition of heparanase activity, DMB assay, NI = no inhibition
T3 construct: The 45 kDa major subunit and the 8 kDa small subunit hetero-complex to form the 53 kDa active form of heparanase
T3 sequence (Q9Y251 36-109 limits assumed): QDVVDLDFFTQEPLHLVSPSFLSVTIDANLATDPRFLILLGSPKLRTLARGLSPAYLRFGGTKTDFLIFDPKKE
T3 sequence (Q9Y251 158-543 limits assumed): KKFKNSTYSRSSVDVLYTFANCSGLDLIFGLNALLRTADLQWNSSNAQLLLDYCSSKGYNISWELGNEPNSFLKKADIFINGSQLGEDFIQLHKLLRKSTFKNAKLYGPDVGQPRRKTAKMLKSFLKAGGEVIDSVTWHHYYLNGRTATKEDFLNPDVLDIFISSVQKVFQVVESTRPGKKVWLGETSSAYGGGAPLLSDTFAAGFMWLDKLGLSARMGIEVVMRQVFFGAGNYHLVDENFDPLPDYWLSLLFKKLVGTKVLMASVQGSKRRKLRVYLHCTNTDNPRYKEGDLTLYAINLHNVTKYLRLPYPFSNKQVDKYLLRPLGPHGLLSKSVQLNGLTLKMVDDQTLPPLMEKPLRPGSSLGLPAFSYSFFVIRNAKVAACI
Procedure: Heparanase (H53) assay: The rigidified compounds described herein were tested for inhibition of heparanase activity in the DMB assay described in U.S. Pat. No. 6,190,875. IC50 was calculated from inhibition curves of all active compounds.

[6] = test system: human prostatic cancer PC3 cells; assay: In-vitro assay for inhibition of cell invasion (PC3); format: cell-based; details: PC-3, PC3 cells (second value of cell), read-out: IC50 Invasion MB231/PC3/A375
Procedure: as §1
as §2, with “atmosphere. […]” for “atmosphere.”
as §3

[7] = test system: A375 melanoma cells; assay: In-vitro assay for inhibition of cell invasion (A375); format: cell-based; details: Homo sapiens, A-375; A375 cells (third value of cell); read-out: IC50 Invasion MB231/PC3/A375
Procedure: as §1
as §2, with “atmosphere. […]” for “atmosphere.”
as §3

Sequence of β-FGF (P09038 143-288): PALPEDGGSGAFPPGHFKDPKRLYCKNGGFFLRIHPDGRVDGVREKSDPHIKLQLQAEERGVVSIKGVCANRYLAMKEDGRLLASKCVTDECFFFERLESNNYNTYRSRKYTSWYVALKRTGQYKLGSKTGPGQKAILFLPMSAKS

Structure (SMILES)	IC50 [1] [µM]	inhibition of β-FGF binding to heparin [1]	IC50 [2] [µM]	IC50 [3] [µM]	inhibition of VEGF binding to heparin [3]	IC50 [4] [µM]	dual activity: inhibition of pro-heparanase activation (H60) and of heparanase activity (H53) [5]	IC50 [5] [µM]	IC50 [6] [µM]	IC50 [7] [µM]
O=C(O)CCCN1C(=O)c2cc3oc(-c4ccc([N+](=O)[O-])cc4)cc3n2C1=S [Compound 2, 4-[2-(4-nitro-phenyl)-6-oxo-4-thioxo-6H-1-oxa-3b,5-diaza-cyclopenta[a]pentalen-5-yl]-butyric acid]	1.7	–	1	1.8	–	2.6	dual activity	9	–	–
CC(C)(CC(=O)N1CCC[C@H]1C(=O)O)CN1C(=O)c2cc3oc(-c4ccc(Cl)cc4)cc3n2C1=S [Compound 22, 1-{4-[2-(4-Chloro-phenyl)-6-oxo-4-thioxo-6H-1-oxa-3b,5-diaza-cyclopenta[a]pentalen-5-yl]-3,3-dimethyl-butyryl}-pyrrolidine-2-carboxylic acid]	2.8	–	0.23	2.4	–	0.022	dual activity	34.8	0.05	2

Further molecules by falling IC50 [1], results first:

IC50 [1] [µM]	inhibition of β-FGF binding to heparin [1]	IC50 [2] [µM]	IC50 [3] [µM]	inhibition of VEGF binding to heparin [3]	IC50 [4] [µM]	dual activity: inhibition of pro-heparanase activation (H60) and of heparanase activity (H53) [5]	IC50 [5] [µM]	IC50 [6] [µM]	IC50 [7] [µM]	Structure (SMILES)
1.8	–	0.27	1.2	–	0.75	dual activity	37	1.4	–	CC(C)(CC(=O)O)CN1C(=O)c2cc3oc(-c4ccc(Cl)cc4)cc3n2C1=S [Compound 11, 4-[2-(4-chloro-phenyl)-6-oxo-4-thioxo-6H-1-oxa-3b,5-diaza-cyclopenta[a]pentalen-5-yl]-3,3-dimethyl-butyric acid]
0.2	sub-micromolar	0.09	0.29	sub-micromolar	0.035	–	–	–	–	CN1CCN(C(=O)CC(C)(C)CN2C(=O)c3cc4oc(-c5ccc(Cl)cc5)cc4n3C2=S)CC1 [Compound 16, 2-(4-Chloro-phenyl)-5-[2,2-dimethyl-4-(4-methyl-piperazin-1-yl)-4-oxo-butyl]-4-thioxo-4,5-dihydro-1-oxa-3b,5-diaza-cyclopenta[a]pentalen-6-one]
0.15	sub-micromolar	1.2	0.16	sub-micromolar	0.17	–	–	–	–	CCN(CC)C(=O)CCCN1C(=O)c2cc3oc(-c4ccc(Cl)cc4)cc3n2C1=S [Compound 6, 4-[2-(4-chloro-phenyl)-6-oxo-4-thioxo-6H-1-oxa-3b,5-diaza-cyclopenta[a]pentalen-5-yl]-N,N-diethyl-butyramide]
